Results on 2 compounds are retold here after patent publication US6475536B2, “Pharmaceutical and cosmetic formulations with antimicrobial activity” (Indena S.p.A., priority 1996, dated 2002).

≈ marks a conversion by molar mass, not a printed value.

What all share (assay): In vitro antimicrobial activity (M.I.C.)
Assay type in all cases: cell-based

The subject of assay [1] is Trichophyton mentagrophytes 193. Conditions: average values. As to the method: (§1) The first is prepared from Krameria triandra and from Mesua ferrea. The activity, expressed in M.I.C. (minimum inhibitory concentration), was evaluated by normal terms within the art. Moreover, one of ordinary skill in the art with little or no experimentation can optimize the results for a particular antimicrobial compound or mixtures of compounds.

For assay [2], the system named is Candida albicans ATCC 10231. Conditions: ATCC10231, average values. As to the method:
as §1

Assay [3] relates to Staphilococcus aureus ATCC6538. Conditions: average values. The procedure: as §1
The test system of the next assay is Bacteroides fragilis. Particulars: average values. As to the method:
as §1

Assay [4] deals with Staphilococcus aureus MPR5. Particulars: average values. The procedure:
as §1

Assay [5] has as its system Streptococcus feaecalis LEP Br. Conditions: average values. As to the method: as §1
For a further assay, the system named is Escherichia coli CNUR 1. Particulars: CNUR1, average values. The procedure: as §1
A further assay concerns Propionibacterium acnes. Particulars: Cutibacterium acnes, average values. As to the method: as §1
Assay [6] has as its system Staphilococcus epidermis CPHL. Conditions: average values. As to the method:
as §1

The test system of the next assay is Acinetobacter cal. OSMPV. Conditions: average values. As to the method:
as §1

For assay [7], the system named is Pseudomonas aeruginosa CNUR 4. Particulars: CNUR4, average values. As to the method:
as §1

By MIC is commonly meant the smallest concentration in the dilution series that meets the test's criterion for growth inhibition. On to `Clc1ccc(COC(Cn2ccnc2)c2ccc(Cl)cc2Cl)c(Cl)c1` (centres unmarked) [miconazole], for which the MIC in [1] and in assay [2] was 2 µg/mL (≈ 4.81 µM) each time.

For the compound `CN1CCN(c2c(F)cc3c(=O)c(C(=O)O)cn4c3c2SCC4)CC1` [rufloxacin], the MIC stood at 0.5 µg/mL (≈ 1.38 µM) in assay [3]; 32 µg/mL (≈ 88.1 µM) in the assay on Bacteroides fragilis; 1 µg/mL (≈ 2.75 µM) in [4]; 16 µg/mL (≈ 44 µM) in assay [5]; 0.51 µg/mL (≈ 1.4 µM) with Escherichia coli CNUR 1; 32 µg/mL (≈ 88.1 µM) against Propionibacterium acnes. Also, the results for the MIC (in assay [6]; in the assay with Acinetobacter cal. OSMPV; in assay [7]) were 1 µg/mL (≈ 2.75 µM), 2 µg/mL (≈ 5.5 µM) and 32 µg/mL (≈ 88.1 µM), respectively.
